According to ChEMBL document CHEMBL4364299, “Discovery of a Potent Kelch-Like ECH-Associated Protein 1-Nuclear Factor Erythroid 2-Related Factor 2 (Keap1-Nrf2) Protein-Protein Interaction Inhibitor with Natural Proline Structure as a Cytoprotective Agent against Acetaminophen-Induced Hepatotoxicity” (J Med Chem, 2019):

Tests used:
[1] = molecular target: Kelch-like ECH-associated protein 1 (Homo sapiens, UniProt Q14145); assay: Displacement of FITC-LDEETGEFL-NH2 from human KEAP1 Kelch domain (322 to 609 residues) measured after 30 mins by fluorescence polarization assay
Kelch-like ECH-associated protein 1, sequence (Q14145 whole entry, the tested form may be a part): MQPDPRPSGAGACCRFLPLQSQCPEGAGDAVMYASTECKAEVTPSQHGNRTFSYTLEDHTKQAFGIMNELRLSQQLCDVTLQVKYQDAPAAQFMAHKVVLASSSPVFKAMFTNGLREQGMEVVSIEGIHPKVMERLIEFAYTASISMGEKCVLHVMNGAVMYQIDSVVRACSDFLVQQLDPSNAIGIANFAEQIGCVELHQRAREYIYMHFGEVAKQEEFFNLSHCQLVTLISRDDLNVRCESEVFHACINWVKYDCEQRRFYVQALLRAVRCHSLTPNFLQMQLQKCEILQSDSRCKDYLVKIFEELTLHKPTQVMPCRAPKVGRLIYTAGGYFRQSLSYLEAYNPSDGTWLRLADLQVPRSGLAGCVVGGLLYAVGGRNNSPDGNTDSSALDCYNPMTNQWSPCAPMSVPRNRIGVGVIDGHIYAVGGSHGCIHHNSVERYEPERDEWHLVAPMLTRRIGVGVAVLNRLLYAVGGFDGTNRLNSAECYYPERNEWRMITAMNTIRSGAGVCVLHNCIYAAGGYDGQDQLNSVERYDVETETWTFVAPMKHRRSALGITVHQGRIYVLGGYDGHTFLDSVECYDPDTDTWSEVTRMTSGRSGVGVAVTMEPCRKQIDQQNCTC

[2] = molecular target: T1, Nuclear factor erythroid 2-related factor 2 (Homo sapiens) (UniProt Q16236); assay: Activation of Nrf2 (unknown origin) stably transfected in human HepG2-ARE-C8 cells assessed as increase in ARE-driven luciferase activity at 10 uM by luciferase reporter gene assay relative to control; assay type: cell-based
T1 sequence (whole entry): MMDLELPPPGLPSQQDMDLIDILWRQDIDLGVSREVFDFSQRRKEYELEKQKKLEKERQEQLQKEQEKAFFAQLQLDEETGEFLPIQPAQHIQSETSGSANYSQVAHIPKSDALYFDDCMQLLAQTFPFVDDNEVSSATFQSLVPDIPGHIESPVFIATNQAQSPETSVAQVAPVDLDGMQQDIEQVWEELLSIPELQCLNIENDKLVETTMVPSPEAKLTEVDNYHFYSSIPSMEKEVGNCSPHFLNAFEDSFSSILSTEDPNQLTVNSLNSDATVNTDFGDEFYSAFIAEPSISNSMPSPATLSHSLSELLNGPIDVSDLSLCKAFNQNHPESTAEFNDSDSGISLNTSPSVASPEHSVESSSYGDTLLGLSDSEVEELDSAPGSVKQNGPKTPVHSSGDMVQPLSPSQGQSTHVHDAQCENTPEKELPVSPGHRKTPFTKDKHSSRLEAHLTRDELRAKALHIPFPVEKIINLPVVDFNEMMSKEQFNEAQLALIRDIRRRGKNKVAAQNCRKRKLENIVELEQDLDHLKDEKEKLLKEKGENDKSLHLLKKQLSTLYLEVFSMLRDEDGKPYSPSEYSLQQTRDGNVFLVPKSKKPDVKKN

[3] = molecular target: T1, Nuclear factor erythroid 2-related factor 2 (Homo sapiens); assay: Activation of Nrf2 (unknown origin) stably transfected in human HepG2-ARE-C8 cells assessed as increase in ARE-driven luciferase activity at 1 uM by luciferase reporter gene assay relative to control; assay type: cell-based
[4] = molecular target: T1, Nuclear factor erythroid 2-related factor 2 (Homo sapiens); assay: Activation of Nrf2 (unknown origin) stably transfected in human HepG2-ARE-C8 cells assessed as increase in ARE-driven luciferase activity at 0.1 uM by luciferase reporter gene assay relative to control; assay type: cell-based
[5] = molecular target: T1, Nuclear factor erythroid 2-related factor 2 (Homo sapiens); assay: Activation of Nrf2 (unknown origin) stably transfected in human HepG2-ARE-C8 cells assessed as increase in ARE-driven luciferase activity at 0.01 uM by luciferase reporter gene assay relative to control; assay type: cell-based
[6] = molecular target: T1, Nuclear factor erythroid 2-related factor 2 (Homo sapiens); assay: Activation of Nrf2 (unknown origin) stably transfected in human HepG2-ARE-C8 cells assessed as increase in ARE-driven luciferase activity at 5 uM by luciferase reporter gene assay relative to control; assay type: cell-based
[7] = molecular target: T1, Nuclear factor erythroid 2-related factor 2 (Homo sapiens); assay: Activation of Nrf2 (unknown origin) stably transfected in human HepG2-ARE-C8 cells assessed as increase in ARE-driven luciferase activity at 20 uM by luciferase reporter gene assay relative to control; assay type: cell-based

Compound | IC50 [1] [µM] | also measured
COc1ccc(S(=O)(=O)Nc2ccc(N[C@H](C(=O)O)C(C)(C)C)c3ccccc23)cc1 | > 50 | –
COc1ccc(S(=O)(=O)Nc2ccc(N[C@H](C(=O)O)C(C)C)c3ccccc23)cc1 | > 50 | –
COc1ccc(S(=O)(=O)Nc2ccc(N[C@@H](Cc3ccc(O)cc3)C(=O)O)c3ccccc23)cc1 | > 50 | –
COc1ccc(S(=O)(=O)N(CC(=O)O)c2ccc(N[C@@H](CO)C(=O)O)c3ccccc23)cc1 | > 50 | –
CC(C)(C)c1cc(O)ccc1O | – | fold change (FC) [2]: 3.38; fold change (FC) [3]: 1.46; fold change (FC) [4]: 1.02; fold change (FC) [5]: 1.04; fold change (FC) [6]: 2.27; fold change (FC) [7]: 4.87
COc1ccc(S(=O)(=O)Nc2ccc(N[C@@H](C)C(=O)O)c3ccccc23)cc1 | > 50 | –
COc1ccc(S(=O)(=O)Nc2ccc(N[C@@H](CCS(C)(=O)=O)C(=O)O)c3ccccc23)cc1 | > 50 | –
COc1ccc(S(=O)(=O)Nc2ccc(N[C@@H](Cc3c[nH]c4ccccc34)C(=O)O)c3ccccc23)cc1 | > 50 | –
COc1ccc(S(=O)(=O)Nc2ccc(N[C@@H](CO)C(=O)O)c3ccccc23)cc1 | > 50 | –
COc1ccc(S(=O)(=O)Nc2ccc(N[C@@H](CC(C)C)C(=O)O)c3ccccc23)cc1 | > 50 | –
